# Measurements taken from US5707615A, “Method of treating HIV infections with anti-viral formulations” (Merrell Pharmaceuticals Inc., priority 1997, dated 1998).
# How the values were obtained:
# GB8 virus in JM cells = test: Virus infection of JM cells with GB8 in the presence of test compounds: syncytia and P24 (Example II); conditions: Table II; for SYNCYTIA % / P24 %: % of control; for SYNCYTIA %: 2880 min; for P24 %: 5760 min
# MT4 cells = test: Toxicity to MT4 cells (TD50, Table IV, MTT); assay type: cell-based; conditions: MT4 cells, 7 days, MTT
# Protocol: (§1) Various oligomers were dissolved in RPMI and were then assayed for anti-HIV activity by making doubling dilutions of the solutions across a 96 well microtitre plate. To each well were then added 5×10^4 cells and 100 TCID50 of virus and the plates incubated at 37° C. for 7 days. MTT was added to each well and the plates incubated for a further 2 hours. The blue formazan crystals were dissolved using acidic isopropanol, and the absorbance measured at 540 nm.
# HIV strain RF = test: Ability to prevent virus-induced cell death using MT4 cells and strain RF (Example III); assay type: cell-based; conditions: MT4 cells, 7 days, MTT, 10080 min
# Protocol: as §1
# HIV-I (GB8) = test: Pretreatment of JM cells and block of HIV-I (GB8) infection (Example IV); conditions: pretreated overnight at 20 μg/mL
substance,measurement,setting,value
"poly[imino(2,5-disulfo-1,4-phenylene)iminocarbonyl], alpha-{[(4-methylphenyl)amino]carbonyl}-omega-[(4-methylphenyl)amino]- [Example 3A]",SYNCYTIA (2 DAYS) MEAN,GB8 virus in JM cells; 0.6 μg/mL,51
same,SYNCYTIA %,GB8 virus in JM cells; 0.6 μg/mL,120%
same,P24,GB8 virus in JM cells; 1.25 μg/mL,4.3 × 10^5 units/mL
same,SYNCYTIA (2 DAYS) MEAN,GB8 virus in JM cells; 1.25 μg/mL,20
same,SYNCYTIA %,GB8 virus in JM cells; 1.25 μg/mL,48%
same,P24 %,GB8 virus in JM cells; 1.25 μg/mL,100%
same,P24,GB8 virus in JM cells; 2.5 μg/mL,2.5 × 10^5 units/mL
same,SYNCYTIA (2 DAYS) MEAN,GB8 virus in JM cells; 2.5 μg/mL,38
same,SYNCYTIA %,GB8 virus in JM cells; 2.5 μg/mL,90%
same,P24 %,GB8 virus in JM cells; 2.5 μg/mL,69%
same,P24,GB8 virus in JM cells; 5 μg/mL,3.6 × 10^5 units/mL
same,SYNCYTIA (2 DAYS) MEAN,GB8 virus in JM cells; 5 μg/mL,15
same,SYNCYTIA %,GB8 virus in JM cells; 5 μg/mL,36%
same,P24 %,GB8 virus in JM cells; 5 μg/mL,100%
same,P24,GB8 virus in JM cells; 10 μg/mL,4.1 × 10^4 units/mL
same,SYNCYTIA (2 DAYS) MEAN,GB8 virus in JM cells; 10 μg/mL,3
same,SYNCYTIA %,GB8 virus in JM cells; 10 μg/mL,7%
same,P24 %,GB8 virus in JM cells; 10 μg/mL,11%
same,SYNCYTIA (2 DAYS) MEAN,GB8 virus in JM cells; 20 μg/mL,5
same,SYNCYTIA %,GB8 virus in JM cells; 20 μg/mL,12%
same,TD50,MT4 cells,> 100 µg/mL
same,ED50,HIV strain RF,> 10 mg/L
same,P24,HIV-I (GB8),26880 pg/mL
same,MEAN SYNCYTIA,HIV-I (GB8); 2 days,153
same,P24 %,"HIV-I (GB8); % of control, 2880 min",95%
same,SYNCYTIA %,"HIV-I (GB8); % of control, 2880 min",129%
